In patent US20240139162A1, “Benzophenanthridine Alkaloids and Their Methods of Use” (Chengdu Anticancer Bioscience, LTD., priority 2019, published 2024):
pIC50: −log10 of the molar value. Where “and” joins values, the source holds several entries; their conditions need not be identical. Equal entries are not always repeated. Entries after “also recorded” stand apart in the source; their conditions may differ. Where two headings read alike, the source gives them in different places.

Assays:
RPE-Neo cells = assay: IC50 in RPE-Neo cells (Table 2); type: cell-based, human
Experimental: (§1) Cells were split, plated in appropriate culture media and allowed to adhere. After 18 hours, corynoline and acetylcorynoline were added to a cell line selected from below. At 72 h or 96 h, MTT was added and at 75 h or 99 h, the A570 nm was recorded. The concentration ranged from 0.02 μM to 40 μM.
(§2) The following RPE cell lines were used in these studies: RPE NEO, RPE MBH, RPE MBC, RPE MA, RPE MP, RPE MI, and RPE MYC Nick. This RPE series were derived from human retinal pigment epithelium and then stably transfected with an hTERT expression construct for immortalization. The resulting cell line was then engineered to overexpress the MYC oncogene (RPE-MYC) or a Neomycin selection marker gene (RPE-NEO). In RPE-MYC cells, a variety of other oncogenes such as Myr-AKT, BCL2, ID1 and PI3K^E45k were further introduced individually to generate the cell lines RPE MA, RPE MBC, RPE MI, RPE MP, respectively. As a control, H2BGFP was introduced into RPE-MYC cells to generate RPE MBH.
(§3) The effect of the compounds chelidonine and protopine on cell division was assessed similarly to corynoline and acetylcorynoline above. As described in Example 6 above, as cells enter and become arrested in mitosis, they detach from the plate surface and appear as rounded cells with a smooth surface membrane. RPE-MBC cells (ectopically expressing oncogenes MYC and Bcl2) were treated with DMSO, chelidonine and protopine, and compared against controls Michael's ketone (MK) and taxol.

Rat1A cells = assay: IC50 in Rat1A cells (Table 2); type: cell-based
Experimental: as §1
(§4) The following Rat1A cell lines were used in these studies: Rat1 A C, Rat1A MYC, Rat1A E2F1, and Rat1A E2F3. The cell line was then engineered as control (C), to overexpress the MYC oncogene (Rat1A-MYC), to overexpress the E2F1 oncogene (Rat1A-E2F1), or to overexpress the E2F3 oncogene (Rat1A-E2F3).
as §3

RPE-A19 cells = assay: IC50 in RPE-A19 cells (Table 2); type: cell-based, human
Experimental: as §1, §3

IMR 90 cells = assay: IC50 in IMR 90 cells (Table 2); type: cell-based; details: Homo sapiens, IMR-90, 72 h
Experimental: as §1, §3

[1] = tested on: RPE cell lines (RPE NEO, RPE MBH, RPE MBC, RPE MA, RPE MP, RPE MI, RPE MYC Nick); assay: MTT assay, RPE cell lines expressing oncogenes; type: cell-based, human; details: RPE cell lines compared with RPE NEO control (FIG. 11)
RPE-MBH cells = assay: IC50 in RPE-MBH cells (Table 1); type: cell-based, human
Experimental: as §1, §2, §3

3T3 MEF cells = assay: IC50 in 3T3 MEF cells (Table 2); type: cell-based
Experimental: as §1, §3

[2] = tested on: Rat1A cell lines (Rat1A C, Rat1A MYC, Rat1A E2F1, Rat1A E2F3); assay: MTT assay, Rat1A cell lines expressing oncogenes; type: cell-based; details: Rat1A cell lines compared to Rat1A C (FIG. 12)
Experimental: as §1, §4

aurora-B kinase = assay: Phosphorylation of Histone 3 at Ser10 as surrogate of aurora-B kinase activity; type: cell-based
Experimental: (§5) Cells were cultured on coverslips in a 6-well plate, fixed with 4% paraformaldehyde and then permeabilized with 0.3% Triton X-100 in PBS. Primary antibody was detected with Texas-Red-conjugated secondary antibodies that were purchased from Jackson ImmunoResearch. After immunostaining, cells were mounted on microscope slides with 4′,6′-diamidino-2-phenylindole (DAPI)-containing Vectashield mounting solution (Vector Laboratories) for detection of fluorescence with an EVOS FL fluorescence microscope (ThermoFisher).

RPE-MBC cells [3] = assay: Mitotic arrest (cell round-up, phospho-Histone H3) and polyploidy (DAPI) assay; type: cell-based, human; details: for mitotic arrest: 24 hours after treatment; for polyploidy (DAPI staining): 48 hours after treatment; for persistence of the arrest of cells in mitosis: within 48-hour treatment
Experimental: (§6) For screening for bioactive fractions, cells were cultured in 96-well plates, and exposed to crude extracts, partially purified fractions or pure compounds at the concentrations indicated in the figure legends. Exposure was for 24 or 48 hours before analysis of cells for either an arrest in mitosis using an inverted microscope or for a change in DNA content after 4′,6′-diamidino-2-phenylindole (DAPI) staining by fluorescence microscopy.
as §5
Cellular “round-up” was used as a surrogate marker for mitotic arrest and could easily be assayed using an inverted tissue culture microscope. […] Mitotic arrest was judged by cell round-up observed under an inverted tissue culture microscope 24 hours after exposing cells to the library.
As cells enter and become arrested in mitosis, they detach from the plate surface and appear as rounded cells with smooth surface membrane, distinct from detached cells that are undergoing programmed cell death. Simple visual screening method was used to assay thousands of extracts. […] To identify bioactive components that are able to interfere with mitosis, 3 kg of Corydalis longicalcarata rhizome were recollected and performed bioactivity-guided extraction, isolation, and purification. The air dried and powdered material was extracted with 70% ethanol assisted by exposure to ultrasonic waves.

RPE-MBC cells [4] = assay: IC50 in RPE-MBC cells (Table 1); type: cell-based, human
Experimental: as §6, with “Retinal pigment epithelial cells transformed by ectopic MYC and Bcl-2 expression (RPE-MBC cells) have been described previously (e.g., Goga et al., 2007, Nat. Med., 13 (7):820-827) and were cultured in DMEM supplemented with 5% fetal bovine serum in a humidified incubator that was maintained at 5% CO2. For” for “For”
The RPE series were derived from human retinal pigment epithelium and then stably transfected with a hTERT expression construct for immortalization. The resulting cell line was then engineered to overexpress the MYC and BCL2 oncogenes, generating the RPE MBC cell line. This cell line mimics cancer cells that overexpress MYC and Bcl2, and readily forms viable polyploid cells when cytokinesis is prevented.
as §1, §3

[5] = tested on: all tested cell lines (RPE, Rat1A and human cancer cell lines); assay: MTT assay, IC50 across all of the cell lines tested; type: cell-based; details: for pIC50: Homo sapiens
[6] = tested on: all tested cell lines (RPE, Rat1A and human cancer cell lines); details: positive control, read-out: known IC50 value; cited from earlier work
RPE MBC cells = assay: Spindle pole assembly by β-tubulin / Histone H3ser10P immunofluorescence; type: cell-based, human
Experimental: Microtubule assembly, specifically spindle pole assembly, was altered by treatment with acetylcorynoline. RPE MBC cells were treated with acetylcorynoline and Histone H3 Serine 10 Phosphorylation (Histone H3ser10p, shown in FIG. 4 and FIG. 5 in red), β-tubulin (green) and DNA (blue) was analyzed by immunofluorescence microscopy. Histone H3ser10P was used to determine the cells that were in early mitosis (e.g., prometaphase or metaphase). β-tubulin was used to examine microtubule localization and spindle assembly within the cells.
Similarly to corynoline and acetylcorynoline above, it was determined that microtubule assembly, specifically spindle pole assembly, was altered by treatment with chelidonine.

[7] = RPE-A19, treatment 72 h, read-out: IC50
[8] = RPE-MBH, treatment 72 h, read-out: IC50
[9] = 3T3 MEF, treatment 72 h, read-out: IC50

`CN1Cc2c(ccc3c2OCO3)[C@@]2(C)[C@@H](O)Cc3cc4c(cc3[C@@H]12)OCO4` [Corynoline, (5bR)-5bα,13-Dimethyl-5bα,6,7,12bα,13,14-hexahydro[1,3]benzodioxolo[5,6-c]-1,3-dioxolo[4,5-i]phenanthridine-6β-ol] showed a pIC50 (RPE-Neo cells; Homo sapiens, 72 h) of 5.15, a pIC50 (Rat1A cells; 72 h) of 5.07 and a pIC50 (RPE-A19 cells; Homo sapiens, 72 h) of 4.97. For the same molecule, the pIC50 (IMR 90 cells) was under 4.40, the “change of IC50 after overexpression of oncogenic factors” value [1] was “all declined, with the exception of RPE MA” and the pIC50 (RPE-MBH cells; Homo sapiens, 72 h) was 4.82. For the same molecule, the pIC50 (3T3 MEF cells; Mus musculus, MEF, 72 h) was 4.91, the “change of IC50 after overexpression of oncogenes” value [2] was “increased in the Rat1 A MYC cell line” and the “phosphorylation of Histone 3 at Ser10” value (aurora-B kinase) was “not affected”. For the same molecule, the mitotic arrest (RPE-MBC cells [3]) was “can arrest mitosis within 24 hours of treatment”, the mitotic arrest (RPE-MBC cells [3]; listed as corynoline) was “Nearly all cells entered and arrested in mitosis” and the “polyploidy (DAPI staining)” value (RPE-MBC cells [3]) was “induce polyploidy at 48 hours”. For the same molecule, the “polyploidy (DAPI staining)” value (RPE-MBC cells [3]; listed as corynoline) was “Polyploidy was observed; also recorded: demonstrates polyploidy”, the “mitotic arrest and polyploidy, dependence on concentration” value (RPE-MBC cells [3]; FIG. 15) was “concentration-dependent” and the “persistence of the arrest of cells in mitosis” value (“persistence” for short) (RPE-MBC cells [3]) was “transient”. For the same molecule, the pIC50 (RPE-MBC cells [4]; Homo sapiens, 72 h) was 5.05, the pIC50 [5] was 4.51 to 6.00 and the “IC50 compared with the other compound” value ([5]; all different cell lines) was “lower than acetylcorynoline”.
For `CC(=O)O[C@H]1C(=O)[C@@]2(C)[C@H]([C@H](OC(=O)c3ccccc3)[C@]3(O)C[C@H](OC(=O)[C@H](O)[C@@H](NC(=O)c4ccccc4)c4ccccc4)C(C)=C1C3(C)C)[C@]1(OC(C)=O)CO[C@@H]1C[C@@H]2O` [Taxol, paclitaxel], the pIC50 (RPE-A19 cells; Homo sapiens, 72 h, RPE-A19, treatment 72 h, read-out: IC50) was 4.87, the pIC50 (RPE-A19 cells; [7]) was 4.80 and 4.89 and the pIC50 (IMR 90 cells; IMR 90, treatment 72 h, read-out: IC50) was 5.16. The pIC50 [6] was over 7.70, the pIC50 (RPE-MBH cells; Homo sapiens, 72 h, RPE-MBH, treatment 72 h, read-out: IC50) was 4.50 and the pIC50 (RPE-MBH cells; [8]) was 4.66 and 4.64. For the same molecule, the pIC50 (3T3 MEF cells; [9]) was 7.21 and 7.02, the pIC50 (3T3 MEF cells; Mus musculus, MEF, 72 h, 3T3 MEF, treatment 72 h, read-out: IC50) was 7.12 and the “polyploidy (DAPI staining)” value (RPE-MBC cells [3]) was “without causing accumulation of polyploid cells”. The “persistence” value (RPE-MBC cells [3]) was “persistent arrest of cells in mitosis”, the pIC50 (RPE-MBC cells [4]; Homo sapiens, RPE-MBC, treatment 72 h, read-out: IC50) was under 4.40 and the pIC50 ([5]; across all of the cell lines tested (FIG. 9), MTT at 72 h or 96 h, read-out: IC50) was over 7.70.
In the case of `CC[C@]1(O)C[C@@H]2CN(CCc3c([nH]c4ccccc34)[C@@](C(=O)OC)(c3cc4c(cc3OC)N(C)[C@H]3[C@@](O)(C(=O)OC)[C@H](OC(C)=O)[C@]5(CC)C=CCN6CC[C@]43[C@@H]65)C2)C1` [vinblastine, reference compound], the “polyploidy (DAPI staining)” value (RPE-MBC cells [3]) was “without causing accumulation of polyploid cells” and the “persistence” value (RPE-MBC cells [3]) was “persistent arrest of cells in mitosis”.
For `CN1Cc2c(ccc3c2OCO3)[C@@H]2[C@H]1c1cc3c(cc1C[C@@H]2O)OCO3` [Chelidonine, 5bR,6S,7,12bS,13,14-hexahydro-13-methyl-[1,3]benzodioxolo[5,6-c]-1,3-dioxolo[4,5-i]phenanthridin-6-ol], the pIC50 (RPE-Neo cells; Homo sapiens, 72 h) was 5.95, the pIC50 (Rat1A cells; 72 h) was 5.95 and the pIC50 (RPE-A19 cells; Homo sapiens, 72 h) was 5.73. For the same molecule, the pIC50 (IMR 90 cells) was 5.61, the “spindle formation (β-tubulin staining)” value (RPE MBC cells; 24 hours of treatment) was “multipolar spindles were formed; also recorded: multipolar spindle formation in mitosis” and the “centrosomes (β-tubulin staining)” value (RPE MBC cells; analyzed after 24 or 48 hours) was “centrosome amplification and centrosome declustering”. The pIC50 (RPE-MBH cells; Homo sapiens, 72 h) was 5.63, the pIC50 (3T3 MEF cells; Mus musculus, MEF, 72 h) was 5.82 and the mitotic arrest (RPE-MBC cells [3]) was “Nearly all cells entered and arrested in mitosis”. The “polyploidy (DAPI staining)” value (RPE-MBC cells [3]) was “polyploidy was observed; also recorded: demonstrates polyploidy”, the “persistence” value (RPE-MBC cells [3]) was “transient” and the pIC50 (RPE-MBC cells [4]; Homo sapiens, 72 h) was under 4.40.
In the case of `CN1CCc2cc3c(cc2C(=O)Cc2ccc4c(c2C1)OCO4)OCO3` [protopine, 7-Methyl-6,8,9,16-tetrahydrobis[1,3]benzodioxolo[4,5-c:5′,6′-g]azecin-15(7H)-one], the mitotic arrest (RPE-MBC cells [3]) was “Nearly all cells entered and arrested in mitosis”, the “polyploidy (DAPI staining)” value (RPE-MBC cells [3]) was “Polyploidy was observed” and the “persistence” value (RPE-MBC cells [3]) was “transient”.
Molecule `CN(C)c1ccc(C(=O)c2ccc(N(C)C)cc2)cc1` [MK, Michael's ketone, reference compound] has a pIC50 (RPE-Neo cells; RPE-Neo, treatment 72 h, read-out: IC50) of 6.09, a pIC50 (Rat1A cells; Rat1A, treatment 72 h, read-out: IC50) of 5.78 and a pIC50 (RPE-A19 cells; [7]) of 7.06. For the same molecule, the pIC50 (RPE-MBH cells; [8]) was 6.52, the pIC50 (3T3 MEF cells; [9]) was 5.46 and the pIC50 (RPE-MBC cells [4]; RPE-MBC, treatment 72 h, read-out: IC50) was 6.68.
